Experimental data from publication PMC3515674 (Angewandte Chemie (International ed. in English), 2011).
Like-named read-outs stand apart in the source and are kept apart here. Ends that are not written are not given here. MCA = 7-methoxycoumarin-4-acetic acid

Target: T1, purified human α2M (Homo sapiens, UniProt P01023)
T1 sequence (P01023 24-1474): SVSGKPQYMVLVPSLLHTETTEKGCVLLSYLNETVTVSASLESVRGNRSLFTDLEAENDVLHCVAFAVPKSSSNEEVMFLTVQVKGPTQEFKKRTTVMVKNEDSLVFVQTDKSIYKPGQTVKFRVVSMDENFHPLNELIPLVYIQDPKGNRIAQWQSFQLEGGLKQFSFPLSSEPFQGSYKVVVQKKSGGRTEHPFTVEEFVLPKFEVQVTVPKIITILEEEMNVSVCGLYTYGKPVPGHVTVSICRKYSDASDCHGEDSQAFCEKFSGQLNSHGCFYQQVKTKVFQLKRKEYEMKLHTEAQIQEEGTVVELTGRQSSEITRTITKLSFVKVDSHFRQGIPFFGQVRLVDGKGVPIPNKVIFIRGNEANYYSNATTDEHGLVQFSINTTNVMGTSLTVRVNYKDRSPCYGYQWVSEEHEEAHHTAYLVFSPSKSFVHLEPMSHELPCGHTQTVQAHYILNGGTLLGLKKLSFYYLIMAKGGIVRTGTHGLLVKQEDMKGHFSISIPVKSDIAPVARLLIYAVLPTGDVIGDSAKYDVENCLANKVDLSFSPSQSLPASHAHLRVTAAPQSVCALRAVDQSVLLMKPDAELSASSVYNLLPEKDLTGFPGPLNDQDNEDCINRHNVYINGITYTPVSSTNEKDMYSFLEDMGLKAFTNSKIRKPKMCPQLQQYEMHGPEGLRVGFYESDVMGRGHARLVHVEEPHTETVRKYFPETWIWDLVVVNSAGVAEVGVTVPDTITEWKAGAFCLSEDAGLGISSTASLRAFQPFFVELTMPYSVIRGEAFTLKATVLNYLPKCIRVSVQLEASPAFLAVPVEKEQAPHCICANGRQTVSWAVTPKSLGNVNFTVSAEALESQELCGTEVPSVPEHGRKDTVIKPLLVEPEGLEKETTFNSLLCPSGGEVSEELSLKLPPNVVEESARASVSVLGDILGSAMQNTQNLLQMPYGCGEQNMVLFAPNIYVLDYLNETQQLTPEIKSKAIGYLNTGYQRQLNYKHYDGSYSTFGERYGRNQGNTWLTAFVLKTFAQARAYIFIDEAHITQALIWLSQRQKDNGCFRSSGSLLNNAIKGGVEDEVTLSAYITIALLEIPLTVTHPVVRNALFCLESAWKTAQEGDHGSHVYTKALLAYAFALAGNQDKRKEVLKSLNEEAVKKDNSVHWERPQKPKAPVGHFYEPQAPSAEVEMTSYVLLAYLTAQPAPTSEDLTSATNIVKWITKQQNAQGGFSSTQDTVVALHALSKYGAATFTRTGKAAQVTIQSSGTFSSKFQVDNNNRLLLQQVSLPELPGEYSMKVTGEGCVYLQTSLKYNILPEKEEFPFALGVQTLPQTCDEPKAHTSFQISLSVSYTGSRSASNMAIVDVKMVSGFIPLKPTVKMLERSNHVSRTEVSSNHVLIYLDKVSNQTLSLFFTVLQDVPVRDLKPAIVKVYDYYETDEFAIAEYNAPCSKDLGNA
Assay type: biochemical

Row | Compound | inhibition of α2M deacylating activity | inhibition of α2M deacylating activity (100 µM) | Km | kcat
1 | O=[N+]([O-])c1ccc(OP(=O)(O)Oc2ccc([N+](=O)[O-])cc2)cc1 [BNPP, bis-p-nitrophenyl-phosphate] | 40% | 0% |  | 
2 | ghrelin-MCA: full length acylated ghrelin containing the fluorophore 7-methoxycoumarin-4-acetic acid (MCA) at the C-terminus (GSSFLSPEHQRVQQRKESKKPPAKLQPR-{MCA}; also: octanoyl acylated, position not given here; UniProt Q9UBU3 24-51, looked up) |  |  | 24 ± 3 µM | 0.000383 ± 1.7e-05 s⁻¹
